# Experimental data from patent US12208071B2, “Glucagon receptor antagonists” (LIGAND PHARMACEUTICALS INCORPORATED, priority 2018, dated 2025).
# Entries after “also recorded” stand apart in the source; their conditions may differ.
# Experiments:
# [1] = Long-term stability (ICH), 25° C./60% RH; assay type: physicochemical
# Procedure: Polymorph Form A was manufactured under Good Manufacturing Practices (GMP)-compliant conditions at a scale of 1.26 kg. The container closure for the batch consisted of double-lined low density polyethylene bags placed inside fiberboard drums, and the batch was on ICH stability under storage conditions of 25° C./60% relative humidity (RH) and 40° C./75% RH. Long-term stability data through the 36-month interval and accelerated stability data through the 6-month interval are shown in Tables 2 and 3.
# Stability samples were tested according to the protocol (Table 5) and to the same specification as the drug substance. The available stability data for samples stored at 25° C./60% RH and 40° C./75% RH are summarized.
# [2] = Aqueous solubility, 24 hours at 25° C., HPLC; assay type: physicochemical; conditions: for solubility at 24 h: 25 °C, thermodynamic from solid; for solubility at 24 h / Solubility: 24 hours at 25° C., n = 2
# Procedure: The testing media: Water, pH 4.0, 6.8, 7.4, 10.0 USP buffers (50 mM), 0.1N HCl, 0.01N HCl, SGF, FaSSIF, FeSSIF.
# About 10 mg of Polymorph Form A was weighed and added to a 1.5 mL vial, and then 1.0 mL of aqueous media was added into the vial. The vial was shaken for 24 hours at 25° C. After equilibration for 24 hours, the mixture was centrifuged at 14000 rpm for 10 mins. The concentration of supernatant was checked by HPLC and the residuals were checked by XRPD. The final pH of supernatant was recorded. Experiments were conducted in duplicate.
smiles,measurement,setting,value
"Cc1cc(C)c(-c2ccc(NC(=O)[C@H](Cc3ccc(C(=O)NCCS(=O)(=O)[O-])cc3)c3ccc(-c4ccc(C(C)(C)C)cc4)cc3)cc2)c(C)c1.[Na+] [Polymorph Form A, Sodium (R)-2-(4-(2-(4′-(tert-butyl)-[1,1′-biphenyl]-4-yl)-3-oxo-3-((2′,4′,6′-trimethyl-[1,1′-biphenyl]-4-yl)amino)propyl)benzamido)ethane-1-sulfonate]",Water content (%),"[1]; 25° C./60% RH, 6 months",6.5%
same,XRPD,"[1]; 25° C./60% RH, 6 months",Same
same,Appearance,"[1]; 25° C./60% RH, 9 months",White
same,Assay (anhydrous w/w %),"[1]; 25° C./60% RH, 9 months",101.1 w/w %
same,Chiral purity (area %),"[1]; 25° C./60% RH, 9 months",99.6 area %
same,"Individual related substance (area %, w/w), RRT 0.46","[1]; 25° C./60% RH, 9 months","0.08 area %, w/w"
same,"Individual related substance (area %, w/w), RRT 0.64","[1]; 25° C./60% RH, 9 months","0.12 area %, w/w"
same,"Individual related substance (area %, w/w), RRT 1.20","[1]; 25° C./60% RH, 9 months","0.05 area %, w/w"
same,Purity (% area),"[1]; 25° C./60% RH, 9 months",99.8 % area
same,Total related substances,"[1]; 25° C./60% RH, 9 months",0.25%
same,Water content (%),"[1]; 25° C./60% RH, 9 months",6.7%
same,Appearance,"[1]; 25° C./60% RH, 12 months",White
same,Assay (anhydrous w/w %),"[1]; 25° C./60% RH, 12 months",101.0 w/w %
same,Chiral purity (area %),"[1]; 25° C./60% RH, 12 months",99.4 area %
same,"Individual related substance (area %, w/w), RRT 0.46","[1]; 25° C./60% RH, 12 months","0.08 area %, w/w"
same,"Individual related substance (area %, w/w), RRT 0.64","[1]; 25° C./60% RH, 12 months","0.11 area %, w/w"
same,"Individual related substance (area %, w/w), RRT 1.20","[1]; 25° C./60% RH, 12 months","0.05 area %, w/w"
same,Purity (% area),"[1]; 25° C./60% RH, 12 months",99.8 % area
same,Total related substances,"[1]; 25° C./60% RH, 12 months",0.24%
same,Water content (%),"[1]; 25° C./60% RH, 12 months",7.0%
same,XRPD,"[1]; 25° C./60% RH, 12 months",Same
same,Appearance,"[1]; 25° C./60% RH, 18 months",White
same,Assay (anhydrous w/w %),"[1]; 25° C./60% RH, 18 months",100.9 w/w %
same,Chiral purity (area %),"[1]; 25° C./60% RH, 18 months",99.5 area %
same,"Individual related substance (area %, w/w), RRT 0.46","[1]; 25° C./60% RH, 18 months","0.08 area %, w/w"
same,"Individual related substance (area %, w/w), RRT 0.64","[1]; 25° C./60% RH, 18 months","0.12 area %, w/w"
same,"Individual related substance (area %, w/w), RRT 1.20","[1]; 25° C./60% RH, 18 months","0.06 area %, w/w"
same,Purity (% area),"[1]; 25° C./60% RH, 18 months",99.7 % area
same,Total related substances,"[1]; 25° C./60% RH, 18 months",0.26%
same,Water content (%),"[1]; 25° C./60% RH, 18 months",6.9%
same,Appearance,"[1]; 25° C./60% RH, 24 months",White
same,Assay (anhydrous w/w %),"[1]; 25° C./60% RH, 24 months",101.6 w/w %
same,Chiral purity (area %),"[1]; 25° C./60% RH, 24 months",100.0 area %
same,"Individual related substance (area %, w/w), RRT 0.46","[1]; 25° C./60% RH, 24 months","0.08 area %, w/w"
same,"Individual related substance (area %, w/w), RRT 0.64","[1]; 25° C./60% RH, 24 months","0.12 area %, w/w"
same,"Individual related substance (area %, w/w), RRT 1.20","[1]; 25° C./60% RH, 24 months","0.07 area %, w/w"
same,Purity (% area),"[1]; 25° C./60% RH, 24 months",99.7 % area
same,Total related substances,"[1]; 25° C./60% RH, 24 months",0.27%
same,Water content (%),"[1]; 25° C./60% RH, 24 months",7.4%
same,XRPD,"[1]; 25° C./60% RH, 24 months",Same
same,Appearance,"[1]; 25° C./60% RH, 36 months",White
same,Assay (anhydrous w/w %),"[1]; 25° C./60% RH, 36 months",101.4 w/w %
same,Chiral purity (area %),"[1]; 25° C./60% RH, 36 months",99.8 area %
same,"Individual related substance (area %, w/w), RRT 0.31","[1]; 25° C./60% RH, 36 months","0.05 area %, w/w"
same,"Individual related substance (area %, w/w), RRT 0.46","[1]; 25° C./60% RH, 36 months","0.08 area %, w/w"
same,"Individual related substance (area %, w/w), RRT 0.64","[1]; 25° C./60% RH, 36 months","0.12 area %, w/w"
same,"Individual related substance (area %, w/w), RRT 1.20","[1]; 25° C./60% RH, 36 months","0.05 area %, w/w"
same,Purity (% area),"[1]; 25° C./60% RH, 36 months",99.7 % area
same,Total related substances,"[1]; 25° C./60% RH, 36 months",0.3%
same,Water content (%),"[1]; 25° C./60% RH, 36 months",7.5%
same,XRPD,"[1]; 25° C./60% RH, 36 months",Same
same,anhydrous assay value,[1]; long-term condition through the 36-month interval,around 101%
same,"changes in assay value, total related substances, physical description, or solid state form (XRPD)",[1]; stored at 25° C./60% RH and 40° C./75% RH,No significant changes
same,Total related substances,"[1]; stored at 25° C./60% RH and 40° C./75% RH, remained constant",around 0.25%
same,Form (XRPD of residual after solubility test),[2]; 0.01N HCl,Form A
same,solubility at 24 h,"[2]; 0.01N HCl, pH 2.24, simulated gastric fluid, initial pH 1.97, final pH 2.24",< 100 µg/mL
same,Solubility,"[2]; 0.01N HCl, initial pH 1.97, final pH 2.24",70 ± 0 µg/mL
same,Form (XRPD of residual after solubility test),[2]; 0.1N HCl,Form A
same,solubility at 24 h,"[2]; 0.1N HCl, pH 1.08, simulated gastric fluid, initial pH 1.02, final pH 1.08",< 100 µg/mL
same,Solubility,"[2]; 0.1N HCl, initial pH 1.02, final pH 1.08",60 ± 0 µg/mL
same,Form (XRPD of residual after solubility test),[2]; FaSSIF,Form A
same,Form (XRPD of residual after solubility test),[2]; FeSSIF,Form A
same,Form (XRPD of residual after solubility test),[2]; SGF,Form A
same,XRPD after solubility test (overall),[2]; all aqueous media,no new forms were found; also recorded: no change
same,solubility at 24 h,"[2]; pH 4.0 USP buffer (50 mM), pH 4, aqueous buffer, pH 4.0 buffer, initial pH 4.05, final pH 4.13",< 100 µg/mL
same,Form (XRPD of residual after solubility test),[2]; pH 4.0 buffer,Form A
same,Solubility,"[2]; pH 4.0 buffer, initial pH 4.05, final pH 4.13",50 ± 10 µg/mL
same,solubility at 24 h,"[2]; pH 6.8 USP buffer (50 mM), pH 6.8, aqueous buffer, pH 6.8 buffer, initial pH 6.84, final pH 6.87",< 100 µg/mL
same,Form (XRPD of residual after solubility test),[2]; pH 6.8 buffer,Form A
same,Solubility,"[2]; pH 6.8 buffer, initial pH 6.84, final pH 6.87",50 ± 0 µg/mL
same,solubility at 24 h,"[2]; pH 7.4 USP buffer (50 mM), pH 7.4, aqueous buffer, pH 7.4 buffer, initial pH 7.43, final pH 7.46",< 100 µg/mL
same,Form (XRPD of residual after solubility test),[2]; pH 7.4 buffer,Form A
same,Solubility,"[2]; pH 7.4 buffer, initial pH 7.43, final pH 7.46",60 ± 10 µg/mL
same,Form (XRPD of residual after solubility test),[2]; pH 10.0 buffer,Form A
same,Form (XRPD of residual after solubility test),[2]; water,Form A
